According to PubChem BioAssay (NCI):
Several values for one entry are separate records, joined by “and”; a condition that tells them apart may be missing. Identical values can stand only once.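 Assay format: 96-well plates, 48-hour exposure. The concentration for 50% growth inhibition is given as GI50. TGI marks complete inhibition of growth.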

Key:
Assay in all cases: inhibition of tumour cell growth, NCI panel, 48 h
HS 578T breast = test system: HS 578T breast
M14 melanoma = test system: M14 melanoma
NCI-H226 lung = test system: NCI-H226 lung
NCI-H23 lung = test system: NCI-H23 lung
NCI/ADR-RES ovarian = test system: NCI/ADR-RES ovarian
OVCAR-3 ovarian = test system: OVCAR-3 ovarian
SF-295 CNS = test system: SF-295 CNS
SK-OV-3 ovarian = test system: SK-OV-3 ovarian
XF 498 CNS = test system: XF 498 CNS

Compound | GI50 (HS 578T breast) [µM] | TGI (HS 578T breast) | GI50 (M14 melanoma) [µM] | TGI (M14 melanoma) | GI50 (NCI-H226 lung) | TGI (NCI-H226 lung) | GI50 (NCI-H23 lung) [µM] | TGI (NCI-H23 lung) | GI50 (NCI/ADR-RES ovarian) | TGI (NCI/ADR-RES ovarian) | TGI (OVCAR-3 ovarian) | TGI (SF-295 CNS) [µM] | GI50 (SK-OV-3 ovarian) [µM] | TGI (SK-OV-3 ovarian) | TGI (XF 498 CNS) [µM] | GI50 (OVCAR-3 ovarian) [µM] | GI50 (SF-295 CNS) [µM] | GI50 (XF 498 CNS) [µM]
CN(CO)c1nc(N(C)CO)nc(N(C)CO)n1 | 21.4 | 55 µM and 78.3 µM | 19.5 | 36.4 µM and 42.8 µM | 24.8 µM and 9.99 µM | > 70.3 µM and 21.4 µM | 25.4 | 59.8 µM and 91.7 µM | 21.7 µM and 20.7 µM | 54.6 µM and 57.4 µM | 62.1 µM and 63.5 µM | > 73.4 | 59.1 | > 82.1 µM and 54.2 µM | 12.8 | – | – | –
O=[N+]([O-])c1cc(C(F)(F)F)cc2n[se]nc12 | – | 75.6 µM | – | 3.22 µM | – | 46.8 µM | – | 9.58 µM | – | 5.11 µM | 3.33 µM | 25.8 | – | 27.5 µM | 5.66 | – | – | –
O=C(CO)CC(=O)C(=O)Nc1cccc(C(F)(F)F)c1 | – | – | – | > 100 µM | – | > 100 µM | – | > 100 µM | – | – | > 100 µM | > 100 | – | > 100 µM | > 100 | – | – | –
CCC1=CCC(P(=O)(c2ccccc2)c2ccccc2)CC1C (stereo not drawn) | – | – | – | > 100 µM | – | > 100 µM | – | > 100 µM | – | – | > 100 µM | > 100 | – | > 100 µM | > 100 | – | – | –
COc1ccccc1/C=C1\CCC(CN2CCOCC2)C1=O (stereo not drawn) | – | > 100 µM | – | 18.8 µM | – | 31.8 µM | – | 43.5 µM | – | 35.8 µM | 15.2 µM | 34.6 | – | > 57.5 µM | 30.1 | – | – | –
CC[C@@]1(O)C(=O)OCc2c1cc1n(c2=O)Cc2cc3cccc(N)c3nc2-1 | – | – | 9.27 | > 100 µM | 2.57 µM | 27.9 µM | 5.81 | 31.5 µM | – | – | > 100 µM | 23.5 | 5.13 | 29.7 µM | 82.1 | 66.8 | 4.04 | 27.3
COC(=O)/C=C(C)/C=C/c1c(C)c(C(C)=O)c(C)n1C | – | – | – | > 100 µM | – | > 100 µM | – | > 100 µM | – | – | > 100 µM | > 100 | – | > 100 µM | > 100 | – | – | –
